Data: patent publication US20210309657A1, “TRICYCLIC COMPOUNDS FOR THE TREATMENT AND PROPHYLAXIS OF BACTERIAL INFECTION” (Hoffmann-La Roche Inc., priority 2018, published 2021)
Values after ≈ are worked out from the molar mass of the structure shown. Where two headings read alike, the source gives them in different places.

Experiments:
[1] = test system: S. aureus (ATCC29213); assay: 50% growth inhibitory concentration (IC50) determination assay, S. aureus; format: cell-based; details: Staphylococcus aureus, growth inhibition, Iso-Sensitest broth, OD 600 nm over 16h, <0.098 = the detection limit
Procedure: (§1) The in vitro antimicrobial activity of the compounds against S. aureus (ATCC29213), K. pneumoniae (ATCC10031), and A. baumannii (ATCC17978), was determined according to the following procedure: The assay used a 10-points Iso-Sensitest broth medium to measure quantitatively the in vitro activity of the compounds against S. aureus ATCC29213, K. pneumoniae ATCC 10031, and A. baumannii ATCC17978. Stock compounds in DMSO were serially two-fold diluted (range from 50 to 0.097 μM final concentration) in 384 wells microtiter plates and inoculated with 49 μL the bacterial suspension in Iso-Sensitest broth medium to have a final cell concentration of ˜5×10^5 CFU/mL in a final volume/well of 50 μL/well. Microtiter plates were incubated at 35±2° C. Bacterial cell growth was determined with the measurement of optical density at λ=600 nm each 20 minutes over a time course of 16h. Growth inhibition was calculated during the logarithmic growth of the bacterial cells with determination of the concentration inhibiting 50% (IC50) of the growth. Compounds of the present invention were tested for their concentration inhibiting 50% (IC50). The data of IC50 over S. aureus (ATCC29213), K. pneumoniae (ATCC10031), and A. baumannii (ATCC17978) are illustrated in Table 4.

[2] = test system: K. pneumoniae (ATCC10031); assay: 50% growth inhibitory concentration (IC50) determination assay, K. pneumoniae; format: cell-based; details: Klebsiella pneumoniae, growth inhibition, Iso-Sensitest broth, OD 600 nm over 16h, <0.098 = the detection limit
Procedure: as §1

[3] = test system: A. baumannii (ATCC17978); assay: 50% growth inhibitory concentration (IC50) determination assay, A. baumannii; format: cell-based; details: Acinetobacter baumannii, growth inhibition, Iso-Sensitest broth, OD 600 nm over 16h, <0.098 = the detection limit
Procedure: as §1

[4] = Lyophilisation solubility assay (LYSA); format: physicochemical; details: thermodynamic from solid
Procedure: The solubility of compounds of present invention was assessed by LYSA assay. Samples were prepared in duplicate from 10 mM DMSO stock solutions ([…]) diluted in 30 μL pure DMSO. After evaporation of DMSO with a centrifugal vacuum evaporator, the residue was dissolved in 0.05 M phosphate buffer (150 μL, pH 6.5), which was stirred for one hour and shook for two hours. After one night, the solution was filtered using a microtiter filter plate. Then the filtrate and its 1/10 dilution were analyzed by HPLC-UV. In addition, a four-point calibration curve was prepared from the 10 mM stock solutions and used for the solubility determination of the compounds.

[5] = aqueous buffer, 0.05 M phosphate buffer, pH 6.5, HPLC-UV, <1.0 = the detection limit, read-out: Lysa

SMILES | IC50 [1] [nM] | IC50 [2] [nM] | IC50 [3] [nM] | solubility thermodynamic [4, 5] [µg/mL] | solubility thermodynamic ([4]; pH 6.5, aqueous buffer) [µg/mL]
CNc1cc(F)c(F)c2c1[nH]c1ncc(-c3cnc(OC)nc3)c(N3CCC4(C[C@H]4N)C3)c12 (stereo in doubt) [Example 1.34, 4-[Cis-2-amino-5-azaspiro[2.4]heptan-5-yl]-5,6-difluoro-3-(2-methoxypyrimidin-5-yl)-N-methyl-9H-pyrido[2,3-b]indol-8-amine] | 603 | < 98 | 157 | 93 (≈ 206 µM) | 
CNc1cc(F)c(F)c2c1[nH]c1ncc(-c3cnc(OC)nc3)c(N3CC(CN)C(F)(F)C3)c12 (centres unmarked) [Example 3.03, 4-[4-(aminomethyl)-3,3-difluoro-pyrrolidin-1-yl]-5,6-difluoro-3-(2-methoxypyrimidin-5-yl)-N-methyl-9H-pyrido[2,3-b]indol-8-amine] | 559 | < 98 | 411 | 125 (≈ 263 µM) | 
CCNc1cc(F)c(F)c2c1[nH]c1ncc(-c3cnc(OC)nc3)c(N3CCC(CN)C3)c12 (centres unmarked) [Example 1.08, 4-[3-(Aminomethyl)pyrrolidin-1-yl]-N-ethyl-5,6-difluoro-3-(2-methoxypyrimidin-5-yl)-9H-pyrido[2,3-b]indol-8-amine] | 789 | < 98 | 243 | 83 (≈ 183 µM) | 
CNc1cc(F)c(F)c2c1[nH]c1ncc(-c3cncc(C#N)c3)c(N3CCCC(N)C3)c12 (centres unmarked) [Example 1.46, 5-(4-(3-Aminopiperidin-1-yl)-5,6-difluoro-8-(methylamino)-9H-pyrido[2,3-b]indol-3-yl)nicotinonitrile] | 206 | < 98 | 387 | 17 (≈ 39.2 µM) | 
CNc1cc(F)c(F)c2c1[nH]c1ncc(-c3cnc(OC)nc3)c(N3CCC4(C[C@@H]4N)C3)c12 (stereo in doubt) [Example 1.35, 4-[Trans-2-amino-5-azaspiro[2.4]heptan-5-yl]-5,6-difluoro-3-(2-methoxypyrimidin-5-yl)-N-methyl-9H-pyrido[2,3-b]indol-8-amine] | 184 | < 98 | < 98 | 90 (≈ 199 µM) | 
CNc1cc(F)cc2c1[nH]c1ncc(-c3cncc(C#N)c3)c(N3CCC4(C[C@H]4N)C3)c12 (stereo in doubt) [Example 1.16, 5-[6-Fluoro-8-(methylamino)-4-[cis-2-amino-5-azaspiro[2.4]heptan-5-yl]-9H-pyrido[2,3-b]indol-3-yl]pyridine-3-carbonitrile] | 867 | < 98 | 104 | 32 (≈ 74.9 µM) | 
CNc1cc(F)c(F)c2c1[nH]c1ncc(-c3cnc(OC)nc3)c(N3C4CNCC3C4)c12 [Example 1.57, 4-(3,6-Diazabicyclo[3.1.1]heptan-6-yl)-5,6-difluoro-3-(2-methoxypyrimidin-5-yl)-N-methyl-9H-pyrido[2,3-b]indol-8-amine] | 286 | < 98 | 314 |  | 91 (≈ 208 µM)
CNc1cc(F)cc2c1[nH]c1ncc(-c3cnc(OC)nc3)c(C3(CN)CC3)c12 [Example 4.01, 4-(1-(Aminomethyl)cyclopropyl)-6-fluoro-3-(2-methoxypyrimidin-5-yl)-N-methyl-9H-pyrido[2,3-b]indol-8-amine] | 631 | < 98 | 847 | > 575 | 
CCNc1cc(F)c(F)c2c1[nH]c1ncc(-c3cncc(C#N)c3)c(N3CCC(CN)C3)c12 (centres unmarked) [Example 1.07, 5-[4-[3-(Aminomethyl)pyrrolidin-1-yl]-8-(ethylamino)-5,6-difluoro-9H-pyrido[2,3-b]indol-3-yl]pyridine-3-carbonitrile] | 1090 | < 98 | 110 | 39 (≈ 87.2 µM) | 
CCNc1cc(C(F)(F)F)cc2c1[nH]c1ncc(-c3cncc(C#N)c3)c(N3CCC(N)C3)c12 (centres unmarked) [Example 1.20, 5-[4-(3-Aminopyrrolidin-1-yl)-8-(ethylamino)-6-(trifluoromethyl)-9H-pyrido[2,3-b]indol-3-yl]pyridine-3-carbonitrile] | 1270 | < 98 | < 98 | 124 (≈ 266 µM) | 
CNc1cc(F)c(F)c2c1[nH]c1ncc(-c3cncc(C#N)c3)c(N3CC(CN)C(F)(F)C3)c12 (centres unmarked) [Example 3.04, 5-[4-[4-(aminomethyl)-3,3-difluoro-pyrrolidin-1-yl]-5,6-difluoro-8-(methylamino)-9H-pyrido[2,3-b]indol-3-yl]pyridine-3-carbonitrile] | 649 | < 98 | 485 | 16 (≈ 34.1 µM) | 
CNc1cc(F)c(F)c2c1[nH]c1ncc(-c3cncc(C#N)c3)c(N3CC4CC4(CN)C3)c12 (centres unmarked) [Example 1.32, 5-[4-[1-(Aminomethyl)-3-azabicyclo[3.1.0]hexan-3-yl]-5,6-difluoro-8-(methylamino)-9H-pyrido[2,3-b]indol-3-yl]pyridine-3-carbonitrile] | 1240 | < 98 | 472 | 10 (≈ 22.4 µM) | 
CNc1cc(F)c(F)c2c1[nH]c1ncc(-c3cncc(C#N)c3)c(N3CC[C@@H](N)C3)c12 [Example 1.15, 5-[4-[(3R)-3-Aminopyrrolidin-1-yl]-5,6-difluoro-8-(methylamino)-9H-pyrido[2,3-b]indol-3-yl]pyridine-3-carbonitrile] | 526 | < 98 | 672 | 169 (≈ 403 µM) | 
CNc1c(F)c(F)cc2c1[nH]c1ncc(-c3cnc(C4(C(=O)O)CC4)nc3)c(N(C)C)c12 [Example 2.03, 1-(5-(4-(dimethylamino)-6,7-difluoro-8-(methylamino)-9H-pyrido[2,3-b]indol-3-yl)pyrimidin-2-yl)cyclopropanecarboxylic acid] | 1110 | 189 | < 98 | 410 (≈ 935 µM) | 
CNc1cc(F)c(F)c2c1[nH]c1ncc(-c3cnc(C4(C(=O)O)CC4)nc3)c(N(C)C)c12 [Example 2.02, 1-[5-[4-(dimethylamino)-5,6-difluoro-8-(methylamino)-9H-pyrido[2,3-b]indol-3-yl]pyrimidin-2-yl]cyclopropanecarboxylic acid] | 474 | 391 | < 98 | 160 (≈ 365 µM) | 
CCNc1cc(F)c(F)c2c1[nH]c1ncc(-c3cnc4ccnn4c3)c(N3CCC(N)C3)c12 (centres unmarked) [Example 1.09, 4-(3-Aminopyrrolidin-1-yl)-N-ethyl-5,6-difluoro-3-pyrazolo[1,5-a]pyrimidin-6-yl-9H-pyrido[2,3-b]indol-8-amine] | 238 | < 98 | 147 | 190 (≈ 424 µM) | 
CNc1cc(F)c(F)c2c1[nH]c1ncc(-c3cncc(C#N)c3)c(N3CCC(CN)C3)c12 (centres unmarked) [Example 1.13, 5-[4-[3-(Aminomethyl)pyrrolidin-1-yl]-5,6-difluoro-8-(methylamino)-9H-pyrido[2,3-b]indol-3-yl]pyridine-3-carbonitrile] | 1500 | < 98 | 764 | 46 (≈ 106 µM) | 
CNc1cc(F)c(F)c2c1[nH]c1ncc(-c3cncc(C#N)c3)c(N3CCC(F)(CN)C3)c12 (centres unmarked) [Example 1.22, 5-[4-[3-(Aminomethyl)-3-fluoro-pyrrolidin-1-yl]-5,6-difluoro-8-(methylamino)-9H-pyrido[2,3-b]indol-3-yl]pyridine-3-carbonitrile] | 224 | < 98 | 112 | 11 (≈ 24.4 µM) | 
CNc1cc(F)c(F)c2c1[nH]c1ncc(-c3cnc(OC)nc3)c(N3CCC(CN)C3)c12 (centres unmarked) [Example 1.19, 4-[3-(Aminomethyl)pyrrolidin-1-yl]-5,6-difluoro-3-(2-methoxypyrimidin-5-yl)-N-methyl-9H-pyrido[2,3-b]indol-8-amine] | 712 | < 98 | 683 | 31 (≈ 70.5 µM) | 
CCNc1cc(F)cc2c1[nH]c1ncc(-c3cncc(C#N)c3)c(N3CCCC(CN)C3)c12 (centres unmarked) [Example 1.14, 5-[4-[3-(Aminomethyl)-1-piperidyl]-8-(ethylamino)-6-fluoro-9H-pyrido[2,3-b]indol-3-yl]pyridine-3-carbonitrile] | 1210 | < 98 | < 98 | 10 (≈ 22.5 µM) | 
